Among the data in PubChem BioAssay (NCI) are TGI values, retold here.

Several values for one entry are separate records, joined by “and”; a condition that tells them apart may be missing. Equal values may be shown once.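 Protocol summary: plate cells (96-well), add compound at 5 concentrations, incubate 48 h, interpolate endpoints linearly. The concentration for full growth arrest is given as TGI.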

Among the test systems are CAKI-1 renal; HCT-116 colon; HL-60(TB) leukemia; HOP-62 NSCLC; HOP-92 NSCLC; IGROV1 ovarian; M14 melanoma; MOLT-4 leukemia; OVCAR-4 ovarian; RPMI-8226 leukemia; RXF 393 renal; SK-MEL-2 melanoma; SK-MEL-28 melanoma; SK-MEL-5 melanoma; SNB-19 CNS; SR leukemia; SW-620 colon; T-47D breast; TK-10 renal; UACC-257 melanoma.
Test in all cases: inhibition of tumour cell growth, NCI panel, 48 h

In the case of `C=C1C(=O)O[C@@H]2[C@H]1C[C@H](I)[C@@]1(C)CC[C@H](O1)[C@](C)(I)CCCC(C)[C@@H]2O` (stereo not given in full), the TGI was 4.19 µM in the assay with CAKI-1 renal; 8.34 µM in the assay with HCT-116 colon; 4.54 µM in the assay with HL-60(TB) leukemia; 35.2 µM with HOP-62 NSCLC; 3.52 µM in the assay with HOP-92 NSCLC; 5.68 µM in the assay on IGROV1 ovarian. Also, the TGI was 19.4 µM with M14 melanoma; > 23.4 µM in the assay with MOLT-4 leukemia; 17.6 µM with OVCAR-4 ovarian; 9.3 µM in the assay with RPMI-8226 leukemia; 4.44 µM in the assay on RXF 393 renal; 28.6 µM in the assay with SK-MEL-2 melanoma. Also, the TGI was 17.6 µM in the assay on SK-MEL-28 melanoma; > 35.8 µM with SK-MEL-5 melanoma; 30.5 µM in the assay on SNB-19 CNS; 9.41 µM in the assay on SR leukemia; 3.51 µM with SW-620 colon; 12.7 µM with T-47D breast. The figures for the TGI in the assay with TK-10 renal and in the assay with UACC-257 melanoma were 3.57 µM and 20.1 µM, respectively.

For the compound `Nc1nc2c(c(=O)[nH]1)NC(CCNc1ccc(C(=O)O)cc1)CN2` (stereo not given), the TGI in the assay with CAKI-1 renal, with HCT-116 colon, in the assay on HL-60(TB) leukemia, in the assay with HOP-62 NSCLC, in the assay on HOP-92 NSCLC and in the assay on IGROV1 ovarian was > 100 µM throughout. The TGI with M14 melanoma, in the assay on MOLT-4 leukemia, in the assay with OVCAR-4 ovarian, in the assay with RPMI-8226 leukemia, in the assay on RXF 393 renal and with SK-MEL-2 melanoma was > 100 µM each time. The TGI with SK-MEL-28 melanoma, in the assay on SK-MEL-5 melanoma, in the assay on SNB-19 CNS, in the assay on SR leukemia, in the assay on SW-620 colon and in the assay on T-47D breast was > 100 µM throughout. In addition, the TGI in the assay with TK-10 renal and in the assay with UACC-257 melanoma was > 100 µM each time.

For the compound `O=c1c2ccccc2n2cnc3ccc(NCCNCCO)c1c32`, the TGI is 9.46 µM with CAKI-1 renal; 8.29 µM in the assay with HCT-116 colon; 18.5 µM in the assay with HL-60(TB) leukemia; 10.9 µM with HOP-62 NSCLC; 13.1 µM in the assay on HOP-92 NSCLC; 9.59 µM in the assay with IGROV1 ovarian. Besides, the TGI is 8.07 µM with M14 melanoma; 10.3 µM with MOLT-4 leukemia; 4.57 µM in the assay on OVCAR-4 ovarian; 17 µM in the assay on RPMI-8226 leukemia; 4.65 µM with RXF 393 renal; 8.8 µM in the assay with SK-MEL-2 melanoma. The TGI in the assay on SK-MEL-28 melanoma is 11 µM; with SK-MEL-5 melanoma it was 5.4 µM; in the assay with SNB-19 CNS, 22.6 µM; with SR leukemia, > 33.6 µM; in the assay with SW-620 colon it was 5.11 µM; in the assay with T-47D breast it was 22.2 µM. Besides, the TGI in the assay on TK-10 renal amounted to 15.7 µM; with UACC-257 melanoma, 13.2 µM.

For the compound `CC(C)=NNc1ncnc2nc[nH]c12`, the TGI was > 100 µM with CAKI-1 renal; > 75.4 µM in the assay with HCT-116 colon; > 72.5 µM in the assay on HL-60(TB) leukemia; > 76.7 µM with HOP-62 NSCLC; > 93.8 µM in the assay on HOP-92 NSCLC; > 100 µM in the assay on IGROV1 ovarian. Further, the TGI in the assay with M14 melanoma was > 100 µM; with MOLT-4 leukemia, > 100 µM; in the assay on OVCAR-4 ovarian, > 100 µM; in the assay on RPMI-8226 leukemia, > 62 µM; with RXF 393 renal it was > 100 µM; in the assay on SK-MEL-2 melanoma, > 67.8 µM. Also, the TGI in the assay with SK-MEL-28 melanoma is > 100 µM; in the assay on SK-MEL-5 melanoma, 48.8 µM; with SNB-19 CNS, > 100 µM; with SR leukemia it was > 60.8 µM; in the assay with SW-620 colon, > 100 µM; with T-47D breast, > 79.1 µM. Moreover, the TGI in the assay with TK-10 renal and in the assay with UACC-257 melanoma was > 100 µM throughout.

In the case of `C=C(Cl)C(Cl)(CBr)CCC(Br)C(C)(C)Cl` (stereo not given), the TGI is 2.36 µM and 1.99 µM and 2.1 µM in the assay on CAKI-1 renal; 1.77 µM and 1.61 µM and 5.75 µM in the assay with HCT-116 colon; 3 µM and 3.02 µM and 6.99 µM in the assay on HL-60(TB) leukemia; 1.84 µM and 2.01 µM and 2.76 µM with HOP-62 NSCLC; 3.5 µM and 2.72 µM and 4.84 µM with HOP-92 NSCLC; 27.2 µM and 26.9 µM and 53.1 µM in the assay on IGROV1 ovarian. Moreover, the TGI in the assay on M14 melanoma was 42.2 µM and 33.5 µM and > 74 µM; in the assay on MOLT-4 leukemia, 59.8 µM and 33.4 µM and 54.3 µM; in the assay with OVCAR-4 ovarian, 7.93 µM and 4.62 µM and 31.9 µM; in the assay with RPMI-8226 leukemia, 1.33 µM and 1.56 µM and 3.22 µM; with RXF 393 renal, 3.92 µM and 0.991 µM and 4.49 µM; in the assay with SK-MEL-2 melanoma, 4.17 µM. The TGI was 8.93 µM and 3.51 µM and 24.1 µM in the assay with SK-MEL-28 melanoma; 25.4 µM and 25.2 µM and 28.3 µM in the assay on SK-MEL-5 melanoma; 5.54 µM and 4.55 µM and 10.1 µM with SNB-19 CNS; 61.2 µM and 26.5 µM and 33.9 µM in the assay on SR leukemia; 6.08 µM and 4.35 µM and 27.7 µM with SW-620 colon; 2.99 µM and 5.16 µM and 1.25 µM in the assay on T-47D breast. Also, the TGI is 3.64 µM and 3.87 µM and 7.61 µM in the assay with TK-10 renal; 6.07 µM and 3.81 µM and 14.1 µM with UACC-257 melanoma.

Regarding `COc1ccc2c(C(=O)c3c(C)n(CCN4CCOCC4)c4ccccc34)cccc2c1`, the TGI in the assay on CAKI-1 renal is > 100 µM; in the assay with HCT-116 colon it was > 100 µM; in the assay with HL-60(TB) leukemia, 23.4 µM; in the assay on HOP-62 NSCLC, > 100 µM; with HOP-92 NSCLC, > 100 µM; with IGROV1 ovarian, > 100 µM. The TGI in the assay with M14 melanoma is 87.7 µM; with MOLT-4 leukemia it was > 100 µM; with OVCAR-4 ovarian, > 100 µM; in the assay on RPMI-8226 leukemia it was 83.6 µM; with RXF 393 renal, 91.2 µM; in the assay with SK-MEL-2 melanoma, 55.9 µM. Besides, the TGI in the assay on SK-MEL-28 melanoma was > 100 µM; in the assay with SK-MEL-5 melanoma, 35.2 µM; with SNB-19 CNS it was > 100 µM; in the assay with SR leukemia it was > 100 µM; with SW-620 colon, 55.4 µM; in the assay with T-47D breast, > 100 µM. Moreover, the TGI in the assay with TK-10 renal is > 100 µM; in the assay with UACC-257 melanoma it was 97.9 µM.

Consider `O=S(=O)(/N=C(\NO)Nc1ccc(Cl)cc1)c1cc(S(=O)(=O)c2ccccc2)cs1`, for which the TGI with CAKI-1 renal was 46.7 µM; in the assay on HCT-116 colon, 26.4 µM; in the assay on HL-60(TB) leukemia it was 7.19 µM; in the assay with HOP-62 NSCLC it was 33.5 µM; in the assay with HOP-92 NSCLC it was 31.5 µM; in the assay on IGROV1 ovarian, 44.9 µM. The TGI in the assay with M14 melanoma was 29.2 µM; in the assay on MOLT-4 leukemia, 39.8 µM; in the assay on OVCAR-4 ovarian it was 57.3 µM; in the assay with RPMI-8226 leukemia it was 44.8 µM; in the assay with RXF 393 renal, 31 µM; with SK-MEL-2 melanoma, 45.9 µM. Besides, the TGI in the assay on SK-MEL-28 melanoma amounted to 41.2 µM; in the assay on SK-MEL-5 melanoma, 21.9 µM; with SNB-19 CNS it was 42.6 µM; with SR leukemia, 95.7 µM; with SW-620 colon, 49.2 µM; in the assay with T-47D breast, 44.3 µM. Besides, the values for the TGI in the assay with TK-10 renal and in the assay on UACC-257 melanoma were 45.4 µM and 39 µM, respectively.

As to `CCOC(=O)C1=C(C)N(CC(C)C)C2(O)C(OC)CC(=O)C3C(=O)N(c4ccccc4)C(=O)C132` (stereo not given), the TGI in the assay with CAKI-1 renal was 98.7 µM; in the assay with HCT-116 colon, > 100 µM; in the assay on HL-60(TB) leukemia, 69.2 µM; in the assay on HOP-62 NSCLC it was > 100 µM; in the assay on HOP-92 NSCLC, > 100 µM; with IGROV1 ovarian it was 40.2 µM. Further, the TGI is > 100 µM in the assay with M14 melanoma; 75.6 µM with MOLT-4 leukemia; > 100 µM with OVCAR-4 ovarian; > 100 µM with RPMI-8226 leukemia; 54.5 µM with RXF 393 renal; 51.1 µM with SK-MEL-2 melanoma. Further, the TGI in the assay on SK-MEL-28 melanoma was 70.1 µM; in the assay on SK-MEL-5 melanoma, 43.9 µM; in the assay on SNB-19 CNS it was > 100 µM; in the assay with SR leukemia, 49.9 µM; in the assay on SW-620 colon, 77.9 µM; in the assay with T-47D breast, > 100 µM. The TGI in the assay with TK-10 renal and with UACC-257 melanoma was > 100 µM in each case.

Turning to `Cn1c(SCc2c[nH]c3ccccc23)nnc1-c1ccc(Cl)cc1Cl`, the TGI with CAKI-1 renal is > 100 µM; in the assay on HCT-116 colon, 93 µM; with HL-60(TB) leukemia it was 25.6 µM; with HOP-62 NSCLC, 21.4 µM; with HOP-92 NSCLC, 53 µM; with IGROV1 ovarian, 67.2 µM. For the same compound, the TGI stood at 38.1 µM in the assay with M14 melanoma; 27.5 µM with MOLT-4 leukemia; 34.2 µM in the assay with OVCAR-4 ovarian; 27.1 µM in the assay on RPMI-8226 leukemia; 32.5 µM in the assay with RXF 393 renal; 36.2 µM with SK-MEL-2 melanoma. Also, the TGI with SK-MEL-28 melanoma was > 100 µM; in the assay with SK-MEL-5 melanoma, 27.5 µM; in the assay on SNB-19 CNS, 61.7 µM; with SR leukemia, 16.6 µM; in the assay on SW-620 colon, > 100 µM; in the assay with T-47D breast, 43.2 µM. Further, the figures for the TGI in the assay on TK-10 renal and with UACC-257 melanoma were 47.2 µM and 56.1 µM, respectively.

As to `COc1cccc(Nc2nc(NS(=O)(=O)c3cc(C)c(Cl)cc3S)n[nH]2)c1`, the TGI with CAKI-1 renal, in the assay on HCT-116 colon, with HL-60(TB) leukemia, in the assay on HOP-62 NSCLC, in the assay with HOP-92 NSCLC and in the assay on IGROV1 ovarian was > 100 µM throughout. Besides, the TGI with M14 melanoma, in the assay on MOLT-4 leukemia, in the assay on OVCAR-4 ovarian, in the assay on RPMI-8226 leukemia, in the assay on RXF 393 renal and with SK-MEL-2 melanoma was > 100 µM each time. The TGI in the assay with SK-MEL-28 melanoma, in the assay on SK-MEL-5 melanoma, with SNB-19 CNS, in the assay on SR leukemia, in the assay with SW-620 colon and in the assay on T-47D breast was > 100 µM throughout. Moreover, the TGI in the assay with TK-10 renal and in the assay with UACC-257 melanoma was > 100 µM in each case.
